From patent publication US20260262643A1, “HERBICIDAL BENZOXAZINES” (FMC CORPORATION, priority 2022, published 2026)

Tests used:
[1] = test system: wheat; assay: Test C postemergence; assay type: in vivo, Triticum aestivum; settings: 10 days, 0 to 100 scale (0 no effect, 100 complete control)
Outline: (§1)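 Visual injury score, 0–100 (100 = complete control), taken 10 days after treatment relative to untreated controls. Pre: directed spray onto soil over sown seeds. Post: foliar spray at one- to two-leaf stage, 2–10 cm. Solvent/surfactant formulation; loam–sand soil; greenhouse.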

[2] = test system: barnyardgrass; assay: Test D flooded paddy test; assay type: in vivo, Echinochloa crus-galli; settings: 250 g ai/ha, applied to paddy water, visual rating after 13 to 14 days, scale 0 to 100 (0 no effect, 100 complete control)
Outline: (§2)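 Post-flood water application at the 2-leaf stage; 3 cm flood depth kept constant; visual control rating 0–100 after 13–14 days greenhouse growth.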

[3] = test system: pigweed, palmer; assay: Test C postemergence; assay type: in vivo, Amaranthus palmeri; settings: 10 days, 0 to 100 scale (0 no effect, 100 complete control)
Outline: as §1

[4] = test system: ragweed; assay: Test C preemergence; assay type: in vivo, Ambrosia artemisiifolia
Outline: as §1

[5] = test system: pigweed, palmer; assay: Test C preemergence; assay type: in vivo, Amaranthus palmeri
Outline: as §1

[6] = test system: foxtail, giant; assay: Test C postemergence; assay type: in vivo, Setaria faberi; settings: 10 days, 0 to 100 scale (0 no effect, 100 complete control)
From the text: (§3) Seeds of plant species selected from barnyardgrass (Echinochloa crusgalli), blackgrass (Alopecurus myosuroides), corn (Zea mays), foxtail, giant (giant foxtail, Setaria faberi), green foxtail (Setaria viridis), goosegrass (Eleusine indica), kochia (Bassia scoparia), oat, wild (wild oat, Avena fatua), pigweed, palmer (palmer amaranth, palmer pigweed, Amaranthus palmeri), Pigweed, Redroot (redroot pigweed, Amaranthus retroflexus), ragweed (common ragweed, Ambrosia artemisiifolia), ryegrass, Italian ([…] ryegrass, Lolium multiflorum), soybean (Glycine max), and wheat (Triticum aestivum) were planted into a blend of loam soil and sand and treated preemergence with a directed soil spray using test chemicals formulated in a non-phytotoxic solvent mixture which included a surfactant. At the same time, plants selected from these crops and weed species and also galium (catchweed bedstraw, Galium aparine) and horseweed (Erigeron canadensis) were planted in pots containing the same blend of loam soil and sand and treated with postemergence applications of test chemicals formulated in the same manner. Plants ranged in height from 2 to 10 cm and were in the one- to two-leaf stage for the postemergence treatment. Treated plants and untreated controls were maintained in a greenhouse for 10 days, after which time all treated plants were compared to untreated controls and visually evaluated for injury. Plant response ratings, summarized in Table C, are based on a 0 to 100 scale where 0 is no effect and 100 is complete control. A dash (-) response means no test result.

[7] = test system: ducksalad; assay: Test D flooded paddy test; assay type: in vivo, Heteranthera limosa; settings: 250 g ai/ha, applied to paddy water, visual rating after 13 to 14 days, scale 0 to 100 (0 no effect, 100 complete control)
Outline: as §2

[8] = test system: rice; assay: Test D flooded paddy test; assay type: in vivo, Oryza sativa; settings: 250 g ai/ha, applied to paddy water, visual rating after 13 to 14 days, scale 0 to 100 (0 no effect, 100 complete control)
Outline: as §2

[9] = test system: ryegrass, Italian; assay: Test C preemergence; assay type: in vivo, Lolium multiflorum
Outline: as §1

[10] = test system: blackgrass; assay: Test C postemergence; assay type: in vivo, Alopecurus myosuroides; settings: 10 days, 0 to 100 scale (0 no effect, 100 complete control)
Outline: as §1

[11] = test system: blackgrass; assay: Test C preemergence; assay type: in vivo, Alopecurus myosuroides
Outline: as §1

[12] = test system: kochia; assay: Test C preemergence; assay type: in vivo, Bassia scoparia
Outline: as §1

[13] = test system: ragweed; assay: Test C postemergence; assay type: in vivo, Ambrosia artemisiifolia; settings: 10 days, 0 to 100 scale (0 no effect, 100 complete control)
Outline: as §1

[14] = test system: horseweed; assay: Test C postemergence; assay type: in vivo, Erigeron canadensis; settings: 10 days, 0 to 100 scale (0 no effect, 100 complete control)
Outline: as §1

[15] = test system: barnyardgrass; assay: Test C postemergence; assay type: in vivo, Echinochloa crusgalli; settings: 10 days, 0 to 100 scale (0 no effect, 100 complete control)
Outline: as §1

[16] = test system: oat, wild; assay: Test C postemergence; assay type: in vivo, Avena fatua; settings: 10 days, 0 to 100 scale (0 no effect, 100 complete control)
Outline: as §1

[17] = test system: wheat; assay: Test C preemergence; assay type: in vivo, Triticum aestivum
Outline: as §1

[18] = test system: foxtail, giant; assay: Test C preemergence; assay type: in vivo, Setaria faberi
From the text: as §3

[19] = test system: barnyardgrass; assay: Test C preemergence; assay type: in vivo, Echinochloa crusgalli
Outline: as §1

[20] = test system: ryegrass, Italian; assay: Test C postemergence; assay type: in vivo, Lolium multiflorum; settings: 10 days, 0 to 100 scale (0 no effect, 100 complete control)
Outline: as §1

[21] = test system: soybean; assay: Test C preemergence; assay type: in vivo, Glycine max
Outline: as §1

[22] = test system: corn; assay: Test C preemergence; assay type: in vivo, Zea mays
Outline: as §1

[23] = test system: soybean; assay: Test C postemergence; assay type: in vivo, Glycine max; settings: 10 days, 0 to 100 scale (0 no effect, 100 complete control)
Outline: as §1

[24] = test system: kochia; assay: Test C postemergence; assay type: in vivo, Bassia scoparia; settings: 10 days, 0 to 100 scale (0 no effect, 100 complete control)
Outline: as §1

[25] = test system: galium; assay: Test C postemergence; assay type: in vivo, Galium aparine; settings: 10 days, 0 to 100 scale (0 no effect, 100 complete control)
Outline: as §1

[26] = test system: corn; assay: Test C postemergence; assay type: in vivo, Zea mays; settings: 10 days, 0 to 100 scale (0 no effect, 100 complete control)
Outline: as §1

[27] = test system: oat, wild; assay: Test C preemergence; assay type: in vivo, Avena fatua
Outline: as §1

[28] = test system: sedge, umbrella; assay: Test D flooded paddy test; assay type: in vivo, Cyperus difformis; settings: 250 g ai/ha, applied to paddy water, visual rating after 13 to 14 days, scale 0 to 100 (0 no effect, 100 complete control)
Outline: as §2

[29] = 500 g ai/ha, preemergence, 0 to 100 scale (0 no effect, 100 complete control)
[30] = Preemergence, 125 g ai/ha, 0 to 100 scale, 0 no effect, 100 complete control

Cc1ncnn1-c1cc(C(=O)N2CC(C(F)(F)F)Oc3c(Cl)cccc32)ccn1 (racemic) [Compound 333]
20: Plant response rating, Pigweed, Palmer ([3]; 500 g ai/ha, postemergence) | Plant response rating, Foxtail, Giant ([6]; Postemergence, 125 g ai/ha) | Plant response rating, Blackgrass ([10]; 500 g ai/ha, postemergence) | Plant response rating, Corn ([26]; 500 g ai/ha, postemergence)
50: Plant response rating, Soybean ([23]; 500 g ai/ha, postemergence) | Plant response rating, Soybean ([23]; Postemergence, 125 g ai/ha) | Plant response rating, Kochia ([24]; 500 g ai/ha, postemergence)
60: Plant response rating, Galium ([25]; 500 g ai/ha, postemergence)
0: Plant response rating, Barnyardgrass (Flood) [2] | Plant response rating, Pigweed, Palmer ([3]; Postemergence, 125 g ai/ha) | Ragweed plant response rating [4, 29] | Plant response rating, Ragweed [4, 30] | Plant response rating, Pigweed, Palmer [5, 30] | Plant response rating, Ducksalad (Flood) [7] | Plant response rating, Rice (Flood) [8] | Plant response rating, Blackgrass ([10]; Postemergence, 125 g ai/ha) | Blackgrass plant response rating [11, 29] | Plant response rating, Blackgrass [11, 30] | Plant response rating, Kochia [12, 30] | Plant response rating, Ragweed ([13]; Postemergence, 125 g ai/ha) | Plant response rating, Horseweed ([14]; 500 g ai/ha, postemergence) | Plant response rating, Horseweed ([14]; Postemergence, 125 g ai/ha) | Plant response rating, Oat, Wild ([16]; 500 g ai/ha, postemergence) | Plant response rating, Oat, Wild ([16]; Postemergence, 125 g ai/ha) | Wheat plant response rating [17, 29] | Plant response rating, Wheat [17, 30] | Plant response rating, Foxtail, Giant [18, 30] | Barnyardgrass plant response rating [19, 29] | Plant response rating, Barnyardgrass [19, 30] | Plant response rating, Ryegrass, Italian ([20]; Postemergence, 125 g ai/ha) | Soybean plant response rating [21, 29] | Plant response rating, Soybean [21, 30] | Corn plant response rating [22, 29] | Plant response rating, Corn [22, 30] | Plant response rating, Galium ([25]; Postemergence, 125 g ai/ha) | Oat, Wild plant response rating [27, 29] | Plant response rating, Oat, Wild [27, 30] | Plant response rating, Sedge, Umbrella (Flood) [28]
10: Plant response rating, Wheat ([1]; 500 g ai/ha, postemergence) | Plant response rating, Wheat ([1]; Postemergence, 125 g ai/ha) | Kochia plant response rating [12, 29] | Plant response rating, Ragweed ([13]; 500 g ai/ha, postemergence) | Plant response rating, Barnyardgrass ([15]; 500 g ai/ha, postemergence) | Plant response rating, Barnyardgrass ([15]; Postemergence, 125 g ai/ha) | Plant response rating, Ryegrass, Italian ([20]; 500 g ai/ha, postemergence) | Plant response rating, Corn ([26]; Postemergence, 125 g ai/ha)
30: Pigweed, Palmer plant response rating [5, 29] | Plant response rating, Ryegrass, Italian [9, 30] | Plant response rating, Kochia ([24]; Postemergence, 125 g ai/ha)
80: Foxtail, Giant plant response rating [18, 29]
40: Plant response rating, Foxtail, Giant ([6]; 500 g ai/ha, postemergence) | Ryegrass, Italian plant response rating [9, 29]
